The results in this text go back to ChEMBL document CHEMBL1151559, “Pyridine and piperidine derivatives as inhibitors of dihydrodipicolinic acid synthase, a key enzyme in the diaminopimelate pathway to l-lysine” (Bioorg Med Chem Lett, 1994).

Assay [1] concerns the target T1, Dihydrodipicolinate synthase (Streptomyces coelicolor (strain ATCC BAA-471 / A3(2) / M145), UniProt Q93RY0).
T1 sequence (Q93RY0 whole entry): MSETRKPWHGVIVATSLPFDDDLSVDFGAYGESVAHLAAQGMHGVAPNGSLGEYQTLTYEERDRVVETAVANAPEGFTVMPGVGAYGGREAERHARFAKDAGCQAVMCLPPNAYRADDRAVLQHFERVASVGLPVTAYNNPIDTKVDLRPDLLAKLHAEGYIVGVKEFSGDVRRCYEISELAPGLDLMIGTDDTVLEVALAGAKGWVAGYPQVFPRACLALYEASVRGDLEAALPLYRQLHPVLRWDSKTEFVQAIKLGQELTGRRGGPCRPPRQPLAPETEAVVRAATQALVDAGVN
Put plainly: In vitro inhibition of dihydrodipicolinic acid synthase. It is filed as functional, Escherichia coli.

The target is the same in assay [2]. Put plainly: Inhibitory activity against dihydrodipicolinic acid synthase. It is filed as functional, Escherichia coli.

Where “and” joins values, the source holds several entries; their conditions need not be identical. Equal values may be shown once.

As a reminder, the IC50 is the midpoint of a concentration-inhibition curve. The low end stands for greater potency in that assay, the high end for weaker potency in that assay. On to `O=C(O)c1cccc(C(=O)O)[n+]1[O-]`, for which the IC50 in assay [1] was 200 µM. `COC(=N)c1cccc(C(=N)OC)n1`: in assay [1], the half-inhibitory concentration (IC50) came out at 200 µM. In assay [1], `c1cc(-c2nnn[nH]2)nc(-c2nnn[nH]2)c1` returned an IC50 of 250 µM. For `COC(=O)[C@@H]1CCC[C@H](C(=O)OC)N1`, 700 µM corresponded to half-maximal inhibition in assay [1] (IC50). `COC(=O)[C@@H]1CCC[C@@H](C(=O)OC)N1` displayed an IC50 in assay [1] of 5200 µM.

`N#Cc1cccc(C#N)n1`: in assay [1], it took 300 µM to reach half-maximal inhibition (IC50). Usually Ki stands for the dissociation constant of the complex between target and ligand, obtained from inhibition or displacement. A lower Ki goes with a stronger hold on the target. `N#C[C@@H]1CCC[C@@H](C#N)N1` yielded an inhibition constant (Ki) in assay [2] of 6300 µM. In assay [1], `COC(=O)c1cccc(C(=O)OC)n1` had an IC50 of 700 µM.

As for `O=C(O)c1cccc[n+]1[O-]`, the IC50 in assay [1] amounted to 800 µM. The same measure, in the same setting: the result for `O=NN1[C@@H](C(=O)O)CCC[C@H]1C(=O)O` reads 2300 µM. The compound `N=C[C@@H]1CCC[C@H](C=N)N1` showed a concentration for half-maximal inhibition (IC50) in assay [1] of 7200 µM. In turn, `N#C[C@@H]1CCC[C@H](C#N)N1` registered an IC50 in assay [1] of 7400 µM. With `COC(=O)[C@@H]1CCC[C@@H](C(=O)OC)N1C`, the IC50 in assay [1] is 700 µM.

Regarding `O=NN1CCCCC1C(=O)O` (stereo not drawn), the IC50 in assay [1] is 3500 µM.

As for `O=NN1CCCC1C(=O)O` (stereo not drawn), inhibition in assay [1] was half-maximal at 7500 µM (IC50).

With `COC(=O)[C@H]1CCC[C@@H](C(=O)OC)N1N=O`, in assay [1], the half-maximal inhibitory concentration (IC50) is 6200 µM and 700 µM. In the case of `O=C(O)c1ccccn1` [2-PICOLINIC ACID], in assay [1], half-maximal inhibition (IC50) required 1000 µM.

Take `O=C(O)c1cccc(C(=O)O)n1` [DIPICOLINIC ACID]: the IC50 in assay [1] turned out to be 400 µM.
